Reference: ChEMBL document CHEMBL3301361, “Experimental in vitro DMPK and physicochemical data on a set of publicly disclosed compounds”
Values after ≈ are worked out from the molar mass of the structure shown.

Experiments:
physchem [1] = details: octan-1-ol/water
physchem [2] = details: pH 7.4 buffer

| SMILES | logD (physchem [1]; pH 7.4, LogD7.4) | solubility thermodynamic (physchem [2]) | logD (physchem [1]; pH 7.4) |
| --- | --- | --- | --- |
| O=C(O)CC(=O)N[C@@H]1c2ccccc2C[C@H]1NC(=O)c1cc2sc(Cl)c(Cl)c2[nH]1 | 1.18 | 1170 µM (≈ 531 µg/mL) |  |
| Oc1ccc(-c2ccc(C3(O)CN4CCC3CC4)cc2)cc1 (stereo not given) |  | 436 µM (≈ 129 µg/mL) | 0.95 |
| Cc1c(-c2ccc3c(c2)OCO3)c(=O)n(C[C@H](N)c2ccccc2)c(=O)n1Cc1c(F)cccc1F | 2.67 | 372 µM (≈ 183 µg/mL) |  |
| COc1ccc(-c2cc3c(N[C@H]4CCCNC4)ncc(C(N)=O)c3s2)cc1 | 1.82 | 1050 µM (≈ 401 µg/mL) |  |
| CS(=O)(=O)C1(c2cc(N3CCOCC3)nc(-c3cccc4[nH]ccc34)n2)CCNCC1 | 0.7 | 234 µM (≈ 104 µg/mL) |  |
| O=C(NC1CCCC1)C(c1ccncc1)N(Cc1ccco1)C(=O)c1ccc(-c2ccccc2)[nH]1 (stereo not given) | 4.36 | 3.5 µM (≈ 1.64 µg/mL) |  |
| CC(C)C(=O)Nc1ccc([N+](=O)[O-])c(C(F)(F)F)c1 [FLUTAMIDE] |  | 89.1 µM (≈ 24.6 µg/mL) | 3.46 |
| CNc1cccc(CCCc2ccc(C[C@H](NC(=O)c3c(Cl)cccc3Cl)C(=O)O)cc2)n1 | 0.57 | 1510 µM (≈ 736 µg/mL) |  |
| CCOC(=O)Cc1csc(NS(=O)(=O)c2ccc(Cl)cc2)n1 | 1.32 | 417 µM (≈ 150 µg/mL) |  |
| O=C1COC2(CCN(S(=O)(=O)c3ccc(-c4ccc5cccnc5c4)cc3)CC2)CN1C1CC1 | 3.24 | 1.9 µM (≈ 0.907 µg/mL) |  |
| COC1(c2cc(F)cc(OCc3ccc4c(ccc(=O)n4C)c3)c2)CCOCC1 [ZD-2138] | 3.52 | 3.2 µM (≈ 1.27 µg/mL) |  |
| CCCSc1nc(N2CCOCC2)ccc1C(=O)N[C@H]1C2CC3CC1C[C@](O)(C3)C2 | 3.2 | 479 µM (≈ 207 µg/mL) |  |
| O=C(NCc1ccncc1)c1ccc(Oc2ccc(C#C[C@]3(O)CN4CCC3CC4)cc2)cc1 |  | 302 µM (≈ 137 µg/mL) | 2.42 |
| COc1cc2c(Nc3cc(CC(=O)Nc4cccc(F)c4F)[nH]n3)ncnc2cc1OCCCN1CCC[C@@H]1CO | 1.96 | 813 µM (≈ 461 µg/mL) |  |
| CNC(=O)c1cc(-c2ccccc2)sc1NC(N)=O | 3.19 | 12 µM (≈ 3.3 µg/mL) |  |
| COc1cc2ncnc(Nc3cccc(Cl)c3F)c2cc1CN1CCC[C@@H]1C(N)=O | 3.58 | 195 µM (≈ 83.8 µg/mL) |  |
| O=C(Nc1nnc(C(=O)Nc2ccc(N3CCOCC3)cc2)o1)c1ccccc1 | 1.02 | 105 µM (≈ 41.2 µg/mL) |  |
| c1ccc(-c2n[nH]cc2-c2ccnc3ccccc23)nc1 | 2.57 | 26.3 µM (≈ 7.16 µg/mL) |  |
| Cc1cccc(Nc2nnc(C(=O)Nc3ccc(N4CCOCC4)nc3)o2)c1 | 3.42 | 4.8 µM (≈ 1.83 µg/mL) |  |
| Cc1c(CCC(=O)O)c[nH]c1/C=C1\C(=O)Nc2ccccc21 | 1.05 | 209 µM (≈ 61.9 µg/mL) |  |
| Cc1nn(C2CCN(C)CC2)cc1-c1cnc(N)c(-c2nc3ccccc3o2)c1 | 3.4 | 21.4 µM (≈ 8.31 µg/mL) |  |
| COc1cc(C(=O)O)ccc1Cn1ccc2ccc(NC(=O)OC3CCCC3)cc21 | 2.1 | 186 µM (≈ 76.1 µg/mL) |  |
| NCC(O)(c1ccc(Cl)cc1)c1ccc(Cl)cc1 | 2.69 | 759 µM (≈ 214 µg/mL) |  |
| CCN(CCO)CCCOc1cc2ncnc(Nc3cc(CC(=O)Nc4cccc(F)c4F)[nH]n3)c2cc1OC | 1.94 | 3 µM (≈ 1.67 µg/mL) |  |
| O=C(CO)N1CCC(c2[nH]nc(-c3ccc(Cl)cc3)c2-c2ccncn2)CC1 [SD-0006] | 1.85 | 60.3 µM (≈ 24 µg/mL) |  |
| CC(=O)OCCn1c(Sc2nc3cccc(Cl)c3s2)nc2c(N)ncnc21 | 3.16 | 4 µM (≈ 1.68 µg/mL) |  |
| CC(=O)N1CCN(c2ccc(Nc3nccc(-c4cnc5ccccn45)n3)cc2)CC1 | 2.82 | 8.5 µM (≈ 3.51 µg/mL) |  |
| Cc1ccc(C(=O)Nc2ccon2)cc1-n1cnc2ccc(N3CCN(C)CC3)cc2c1=O | 1.87 | 57.5 µM (≈ 25.6 µg/mL) |  |
| Cc1ccc(NC(=O)c2cccc(N3CCOCC3)c2)cc1NC(=O)c1ccc(OCc2ccncc2)cc1 | 3.2 | 0.5 µM (≈ 0.261 µg/mL) |  |
| c1ccc(Nc2cc(Nc3ccccc3)[nH]n2)cc1 | 3.8 | 12.6 µM (≈ 3.15 µg/mL) |  |
